Results as given in PubChem BioAssay AID328 (DTP/NCI, 2004).
Where “and” joins values, the source holds several entries; their conditions need not be identical. Equal values may be shown once. Inconclusive results and toxic doses are left out.

System: BDF1 mice, P388 leukemia ip, median survival T/C
Test: NCI In Vivo Anticancer Drug Screen. Data for tumor model P388 Leukemia (intraperitoneal) in B6D2F1 (BDF1) mice
Conditions: endpoint: median survival time, higher = longer survival
How it was run: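 Mice carrying the transplantable tumour receive compound or vehicle. Survival is followed in each arm, and the treated measure is divided by the vehicle measure.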

[1] = dose: 50.0 mg/kg/injection, schedule: Q01DX009 (ip), vehicle: Klucel (hydroxypropylcellulose) (HPC)
[2] = dose: 100.0 mg/kg/injection, schedule: Q01DX009 (ip), vehicle: Klucel (hydroxypropylcellulose) (HPC)
[3] = dose: 100.0 mg/kg/injection, schedule: Q01DX009 (ip), vehicle: saline with Tween-80
[4] = dose: 200.0 mg/kg/injection, schedule: Q01DX009 (ip), vehicle: saline with Tween-80
[5] = dose: 400.0 mg/kg/injection, schedule: Q01DX009 (ip), vehicle: saline with Tween-80
[6] = dose: 50.0 mg/kg/injection, schedule: Q01DX009 (ip), vehicle: saline with Tween-80
[7] = dose: 100.0 mg/kg/injection, schedule: Q04DX003 (ip), vehicle: saline
[8] = dose: 200.0 mg/kg/injection, schedule: Q04DX003 (ip), vehicle: saline

In the case of Cc1ccc(N=C(c2ccccc2)c2ccc([N+](=O)[O-])cc2)cc1, the T/C (dose: 100.0 mg/kg/injection, schedule: Q01DX001 (ip), vehicle: Klucel (hydroxypropylcellulose) (HPC)) is reported as 108 % of control, the T/C (dose: 200.0 mg/kg/injection, schedule: Q01DX001 (ip), vehicle: Klucel (hydroxypropylcellulose) (HPC)) is reported as 100 % of control and the T/C (dose: 400.0 mg/kg/injection, schedule: Q01DX001 (ip), vehicle: Klucel (hydroxypropylcellulose) (HPC)) is reported as 104 % of control.

In the case of O=NN(CCF)C(=O)NCCF, the T/C (dose: 0.25 mg/kg/injection, schedule: Q01DX009 (ip), vehicle: saline) is reported as 120 % of control, the T/C (dose: 0.5 mg/kg/injection, schedule: Q04DX003 (ip), vehicle: saline) is reported as 120 % of control and the T/C (dose: 1.0 mg/kg/injection, schedule: Q01DX009 (ip), vehicle: saline) is reported as 150 % of control and 172 % of control. The T/C (dose: 1.0 mg/kg/injection, schedule: Q04DX003 (ip), vehicle: saline) was 104 % of control, the T/C (dose: 2.0 mg/kg/injection, schedule: Q01DX009 (ip), vehicle: saline) was 268 % of control and the T/C (dose: 2.0 mg/kg/injection, schedule: Q04DX003 (ip), vehicle: saline) was 175 % of control. For the same compound, the T/C (dose: 3.3 mg/kg/injection, schedule: Q04DX003 (ip), vehicle: saline) was 165 % of control, the T/C (dose: 5.0 mg/kg/injection, schedule: Q04DX003 (ip), vehicle: saline) was 235 % of control and the T/C (dose: 7.5 mg/kg/injection, schedule: Q04DX003 (ip), vehicle: saline) was 95 % of control. For the same compound, the T/C (dose: 10.0 mg/kg/injection, schedule: Q04DX003 (ip), vehicle: saline) was 300 % of control and the T/C (dose: 20.0 mg/kg/injection, schedule: Q04DX003 (ip), vehicle: saline) was 110 % of control.

For C/C(=N\NC(N)=O)c1ccc(Cl)cc1, the T/C [1] was 94 % of control and the T/C [2] was 108 % of control.

In the case of O=C([CH-]C(=O)C(F)(F)F)c1ccccc1.O=C([CH-]C(=O)C(F)(F)F)c1ccccc1.O=C([CH-]C(=O)C(F)(F)F)c1ccccc1.O=C([CH-]C(=O)C(F)(F)F)c1ccccc1.[Eu+3].c1ccncc1, the T/C [2] is reported as 113 % of control.

With O=C1OC2CCC3C1C3C2Br (configuration not stated) the T/C (dose: 2.32 mg/kg/injection, schedule: Q04DX003 (ip), vehicle: Klucel (hydroxypropylcellulose) (HPC)) was 95 % of control, the T/C (dose: 4.65 mg/kg/injection, schedule: Q04DX003 (ip), vehicle: Klucel (hydroxypropylcellulose) (HPC)) was 95 % of control and the T/C (dose: 9.3 mg/kg/injection, schedule: Q04DX003 (ip), vehicle: Klucel (hydroxypropylcellulose) (HPC)) was 95 % of control. The T/C (dose: 13.0 mg/kg/injection, schedule: Q04DX003 (ip), vehicle: Klucel (hydroxypropylcellulose) (HPC)) was 115 % of control, the T/C (dose: 21.0 mg/kg/injection, schedule: Q04DX003 (ip), vehicle: Klucel (hydroxypropylcellulose) (HPC)) was 115 % of control and the T/C (dose: 30.0 mg/kg/injection, schedule: Q04DX003 (ip), vehicle: Klucel (hydroxypropylcellulose) (HPC)) was 120 % of control. The T/C (dose: 45.0 mg/kg/injection, schedule: Q04DX003 (ip), vehicle: Klucel (hydroxypropylcellulose) (HPC)) was 109 % of control and the T/C (dose: 70.0 mg/kg/injection, schedule: Q04DX003 (ip), vehicle: Klucel (hydroxypropylcellulose) (HPC)) was 95 % of control.

For Cc1ccc(Nc2n[nH]c(=S)s2)cc1C, the T/C [3] was 104 % of control, the T/C [4] was 109 % of control and the T/C [5] was 109 % of control.

With C[CH2][Pb]([CH2]C)([CH2]C)[O]C(=O)COc1ccccc1 the T/C (dose: 0.75 mg/kg/injection, schedule: Q01DX009 (ip), vehicle: Klucel (hydroxypropylcellulose) (HPC)) was 118 % of control, the T/C (dose: 0.75 mg/kg/injection, schedule: Q04DX003 (ip), vehicle: saline with Tween-80) was 107 % of control and the T/C (dose: 1.5 mg/kg/injection, schedule: Q04DX003 (ip), vehicle: saline with Tween-80) was 117 % of control. For the same compound, the T/C (dose: 1.56 mg/kg/injection, schedule: Q01DX009 (ip), vehicle: saline with Tween-80) was 115 % of control, the T/C (dose: 3.9 mg/kg/injection, schedule: Q04DX003 (ip), vehicle: alcohol) was 112 % of control and the T/C (dose: 6.0 mg/kg/injection, schedule: Q01DX009 (ip), vehicle: Klucel (hydroxypropylcellulose) (HPC)) was 117 % of control. The T/C (dose: 6.0 mg/kg/injection, schedule: Q04DX003 (ip), vehicle: alcohol) was 120 % of control, the T/C (dose: 6.25 mg/kg/injection, schedule: Q01DX009 (ip), vehicle: saline with Tween-80) was 153 % of control and 168 % of control and the T/C (dose: 9.0 mg/kg/injection, schedule: Q04DX003 (ip), vehicle: alcohol) was 105 % of control. For the same compound, the T/C (dose: 12.0 mg/kg/injection, schedule: Q04DX003 (ip), vehicle: saline with Tween-80) was 107 % of control.

With CC(C)c1cc(C(C)C)n2nc(N)nc2n1 the T/C [3] was 100 % of control, the T/C [4] was 95 % of control and the T/C [5] was 90 % of control.

[NH-]C(CCC(N)=O)C(=O)O.[NH-]C(CCCCN)C(=O)O.[Zn+2] (configuration not stated) was tested, and the T/C (dose: 50.0 mg/kg/injection, schedule: Q01DX005 (ip), vehicle: saline) was 106 % of control.

COC1(c2cccs2)OC1(C)C (configuration not stated) was tested, and the T/C [3] was 95 % of control, the T/C (dose: 100.0 mg/kg/injection, schedule: Q04DX003 (ip), vehicle: saline with Tween-80) was 100 % of control and the T/C [4] was 95 % of control. For the same compound, the T/C (dose: 200.0 mg/kg/injection, schedule: Q04DX003 (ip), vehicle: saline with Tween-80) was 91 % of control, the T/C [5] was 95 % of control and the T/C (dose: 400.0 mg/kg/injection, schedule: Q04DX003 (ip), vehicle: saline with Tween-80) was 104 % of control.

CC#CC#C/C=C1\OC2(CCCCO2)C(OC(C)=O)C1OC(C)=O (configuration not stated) was tested, and the T/C (dose: 10.0 mg/kg/injection, schedule: Q01DX009 (ip), vehicle: Klucel (hydroxypropylcellulose) (HPC)) was 98 % of control, the T/C (dose: 20.0 mg/kg/injection, schedule: Q01DX009 (ip), vehicle: Klucel (hydroxypropylcellulose) (HPC)) was 98 % of control and the T/C (dose: 40.0 mg/kg/injection, schedule: Q01DX009 (ip), vehicle: Klucel (hydroxypropylcellulose) (HPC)) was 115 % of control.

In the case of COCC1OC(OC2OCC3OC4(OCC(O)(C(C)OC)C5OCOC54)OC3C2OC)C(OC)C(O)C1OC1OC(C)C(OC)C(OC2OC(C)C3OC4(CC(O)C(OC5CC(OC6CC(C)([N+](=O)[O-])C(OC)C(C)O6)C(OC(=O)c6c(C)c(Cl)c(O)c(Cl)c6OC)C(C)O5)C(C)O4)OC3(C)C2O)C1O (configuration not stated), the T/C (dose: 12.5 mg/kg/injection, schedule: Q01DX009 (ip), vehicle: saline) is reported as 115 % of control.

With Cc1cc(N(C)C)c2ccc3cc4ccccc4cc3c2n1 the T/C (dose: 25.0 mg/kg/injection, schedule: Q01DX009 (ip), vehicle: saline with Tween-80) was 95 % of control, the T/C [6] was 95 % of control and 114 % of control and the T/C [3] was 92 % of control and 121 % of control.

O=C(CCl)NC(CO)C(=O)O (configuration not stated) was tested, and the T/C (dose: 50.0 mg/kg/injection, schedule: Q04DX003 (ip), vehicle: saline) was 91 % of control, the T/C [7] was 100 % of control and the T/C [8] was 91 % of control.

C[N+](C)(C)CCO was tested, and the T/C [7] was 100 % of control, the T/C [8] was 105 % of control and the T/C (dose: 400.0 mg/kg/injection, schedule: Q04DX003 (ip), vehicle: saline) was 110 % of control.

For COC(=O)c1c2ccccc2cn1-c1ccccc1, the T/C [6] was 100 % of control, the T/C [3] was 109 % of control and the T/C [4] was 100 % of control.

CCCCCCCCCCCCN(CCC(=O)O)S(=O)(=O)O was tested, and the T/C (dose: 25.0 mg/kg/injection, schedule: Q01DX009 (ip), vehicle: Klucel (hydroxypropylcellulose) (HPC)) was 95 % of control, the T/C [1] was 104 % of control and the T/C (dose: 75.0 mg/kg/injection, schedule: Q04DX003 (ip), vehicle: Klucel (hydroxypropylcellulose) (HPC)) was 100 % of control. The T/C [2] was 90 % of control and the T/C (dose: 150.0 mg/kg/injection, schedule: Q04DX003 (ip), vehicle: Klucel (hydroxypropylcellulose) (HPC)) was 100 % of control.

OCC1OC(O)C(O)C(O)C1O (configuration not stated) was tested, and the T/C (dose: 500.0 mg/kg/injection, schedule: Q01DX009 (ip), vehicle: saline) was 124 % of control, the T/C (dose: 500.0 mg/kg/injection, schedule: Q04DX003 (ip), vehicle: saline) was 100 % of control and the T/C (dose: 1000.0 mg/kg/injection, schedule: Q01DX009 (ip), vehicle: saline) was 117 % of control. The T/C (dose: 1000.0 mg/kg/injection, schedule: Q04DX003 (ip), vehicle: saline) was 100 % of control, the T/C (dose: 2000.0 mg/kg/injection, schedule: Q01DX009 (ip), vehicle: saline) was 120 % of control and the T/C (dose: 2000.0 mg/kg/injection, schedule: Q04DX003 (ip), vehicle: saline) was 100 % of control. The T/C (dose: 4000.0 mg/kg/injection, schedule: Q01DX009 (ip), vehicle: saline) was 100 % of control and the T/C (dose: 4000.0 mg/kg/injection, schedule: Q04DX003 (ip), vehicle: saline) was 102 % of control.
